{"source": "paper PMC6482079", "about": "(European journal of pharmaceutical sciences : official …, 2019)", "key": {"[1]": {"tested_on": "B/Bris/60/2008 (Victoria)", "assay": "Plaque reduction assay in ST6Gal I-overexpressing MDCK cells", "assay_type": "cell-based, influenza B virus", "details": "for Drug sensitivity: sensitivity of the strain to the named drug"}, "[2]": {"tested_on": "B/Wisconsin/1/2010 (Yamagata)", "assay": "Plaque reduction assay in ST6Gal I-overexpressing MDCK cells", "assay_type": "cell-based, influenza B virus", "details": "for Drug sensitivity: sensitivity of the strain to the named drug"}}, "data": [{"smiles": "NC12CC3CC(CC(C3)C1)C2", "note": "[Amantadine, amantadine]", "values": [{"measurement": "Drug sensitivity", "setting": "[1]", "result": "Resistant"}, {"measurement": "Drug sensitivity", "setting": "[2]", "result": "Resistant"}]}, {"smiles": "CCC(CC)O[C@@H]1C=C(C(=O)O)C[C@H](N)[C@H]1NC(C)=O", "note": "[Oseltamivir carboxylate]", "values": [{"measurement": "Drug sensitivity", "setting": "[1]", "result": "Sensitive"}, {"measurement": "Drug sensitivity", "setting": "[2]", "result": "Sensitive"}]}, {"smiles": "Cc1cc(OCc2nnc(SC3CCCC3)n2-c2cccnc2)ccc1-c1ccc(S(C)(=O)=O)cc1", "note": "[NMS-873]", "values": [{"measurement": "SI (selectivity index)", "setting": "[1]; CC50/EC50", "result": 97}, {"measurement": "EC50", "setting": "[1]; Influenza B virus, MDCK", "result": "28 ± 8", "unit": "nM"}, {"measurement": "SI (selectivity index)", "setting": "[2]; CC50/EC50", "result": 78}, {"measurement": "EC50", "setting": "[2]; Influenza B virus, MDCK", "result": "35 ± 5", "unit": "nM"}]}]}
